Where two headings read alike, the source gives them in different places.
Experiments:
[1] = system: P388 murine leukemia cells; experiment: In vitro cytotoxicity, continuous (48-hour) exposure of P388 cells; format: cell-based; conditions: Mus musculus, read-out: in vitro cytotoxicity IC50, cont. exp.
Protocol: In vitro cytotoxicity was assayed by determining cell survival following exposure of P388 murine leukemia cells to a range of test compound concentrations. Cytotoxicity was quantitated following either a one-hour exposure or continuous exposure of P388 cells to test compound.
A Manual of Basic Technique. […] Briefly, following drug exposure cells were plated in soft agar and incubated (37°, 5% CO2) for 7-10 days during which time viable cells form visible colonies. Cytotoxicity following continuous exposure of cells to test compound was assayed by quantitating total P388 cells on a Coultier Counter following a 48-hour co-incubation of test compound with cells. P388 cells were maintained in log phase throughout the duration of cytotoxicity assays.
The percentage of cells surviving relative to an untreated control was graphed as a function of increasing drug concentration.

[2] = In vivo antitumor assay, MXI(src); parameters: species or system mice; conditions: mouse, in vivo, drug ip
Text: (§1) Mice: Inbred: C3H/He and NCR-nu; and Hybrids: B6D2F1 (C57BL/6 females×DBA/2 males, CD2F1 (Balb/c females×DBS/2 males) and B6C3fl (C57BL/6×C3H) were bred at Wayne State University from strains obtained from the Frederick Cancer Research Facility, Frederick, Maryland or purchased from commercial suppliers.
(§2) Tumors: Murine Tumor: P388 and an adriamycin-resistant (ADR) subline P388/ADR leukemia and the following transplantable solid tumors of mice were used for in vivo testing: B16 melanoma (B16), pancreatic ductal adenocarcinoma No. 03 (Pane 03), colon adenocarcinoma No. 38 (colo 38), lung carcinoma No. 12 (LC 12), mammary ductal adenocarcinoma No. 16/C (Mam16C) and an adriamycin-resistant subline Mam16C/ADR. Human tumor: A single human tumor, mammary carcinoma MX-1 was used for in vivo testing. All tumors are in the Developmental Therapeutics Program frozen tumor respository, maintained by the Biological Testing Branch, Frederick Maryland. Each has a detailed description, code identification number, and list of references at the National Tumor Repository. Murine tumors were maintained in the mouse strain of origin and were transplanted in the appropriate F1 hydrid (or the strain of origin) for therapy trials. Human mammary carcinoma MX-1 (MX1) was maintained as a subcutaneous implant in either athymic Swiss (Cr: NIH(S)-nu) or athymic random bred (NCR-nu) mice and transplanted in NCR-nu for therapy trials.
(§3) For P388 and P388/ADR leukemia studies the tumor cells were implanted either interperitoneally (IP) or intravenously (IV) on day zero and treatment was started on day one. For B16 melanoma (B16) studies, the tumor cells were implanted IP on day zero and treatment was started on day one. Titered controls were also included to facilitate the calculation of tumor cell kill. For mammary carcinoma MX-1 studies, tumors were implanted with 1) subcutaneously (sc) (14-mg fragment of sc donor tumor) in the axillary region or 2) under the subrenal capsule (SRC) (10×10×10 ocular micrometer unit fragment of sc donor tumor).
(§4) Quantitative end points used to assess antitumor activity included % Increased Life Span (% ILS), Tumor Cell Kill (Log10 kill), and Tumor Growth Inhibition (T/C). Long Term Survivors (45 or 60 day) were excluded from calculations of %ILS and Tumor Cell Kill.
(§5) Tumors were measured with a caliper once or twice weekly (as needed) until either tumors exceeded 1600 mg or cure was assured. Tumor weights were estimated from two-dimensional measurements: Tumor Weight (mg)=(a×b^2) / 2, where a and b are the tumor length and width (ram) respectively. Measurements were carried out simultaneously in both treatment and control groups. When the control group tumors reached approximately 750-1500 mg in size (median of group), the median tumor weight of each group was determined (including zeros). The T/C value in percent is an indication of antitumor effectiveness. The % T/C was calculated from the following formula for solid murine tumor models: [formula] where T and C are median tumor weights of the treatment and control groups, respectively. […] A T/C value <10% is indicative of a high degree of antitumor activity and is the level used by National Cancer Institute to justify further development if other requirements are met (termed DN-2 level activity). By convention the T/C value for the mammary carcinoma MX-1 models is calculated by the parameter of change in tumor weight . The % T/C was calculated from the following formula for MX-1 models [formula] where ΔT and ΔC are the change in mean tumor weight of the test and control groups, respectively, and T (initial) is the initial mean tumor weight of the test group. […] A reproducible % T/C ≤10 is considered significant activity.

mammary carcinoma MX-1 [3] = experiment: In vivo antitumor assay, MXI(src); parameters: species or system mice; conditions: drug ip, qd 1,5,9, exp SD-18, change in tumor weight
Text: as §1, §2, §3, §4, §5

[4] = In vivo antitumor assay, MXI(sc); parameters: species or system human; conditions: mouse, in vivo, drug ip, qd 1,5,9, exp SD-9
Text: as §1, §2, §3, §4, §5

mammary carcinoma MX-1 [5] = experiment: In vivo antitumor assay, MXI(sc); parameters: species or system human; conditions: drug ip, qd 1,5,9, exp SD-9, change in tumor weight
Text: as §1, §2, §3, §4, §5

[6] = In vivo antitumor assay, P388(ip); parameters: species or system mice; conditions: mouse, in vivo, qd 1,5,9
Text: as §1, §2, §3, §4
(§6) Endpoints were calculated as follows: [formula] where Dt is the median day of death for treated and Dc is the median day of death for control groups. A % ILS ≥20 or ≥25 for P388 and B16 intraperitoneal models, respectively, is indicative of a significant degree of antitumor activity. A % ILS ≥75 or ≥50 for P388 and B16 intraperitoneal models, , respectively, is indicative of a high degree of antitumor activity and is the level used by National Cancer Institute to justify further development if other requirements are met (termed DN-2 level activity). Minimum quantitative activity limits for additional P388 models (e.g. P388/ADR and P388, IV) have not been defined.

P388 leukemia = experiment: In vivo antitumor assay, P388(ip); parameters: species or system mice; conditions: qd 1,5,9
Text: as §1, §2, §3, §4, §6

B16 melanoma (B16) = experiment: In vivo antitumor assay, B16(ip); parameters: species or system mice; conditions: drug ip; for ILS %: qd 1,5,9, exp SD-17, at dose of MTD; for Log Kill: qd 1,5,9, exp SD-17, log10
Text: as §1, §2, §3, §4, §6

[7] = In vivo antitumor assay, B16(ip); parameters: species or system mice; conditions: mouse, in vivo, drug ip
Text: as §1, §2, §3, §4, §6

[8] = P388, continuous exposure (48-hour)
[9] = qd 1,5,9, exp SD-17, MTD not achieved, maximum dose tested

Row | Compound | IC50 ([1]; P388, 48 h) [µM] | MTD ([2]; qd 1,5,9, exp SD-18) [mg/kg] | T/C % (mammary carcinoma MX-1 [3]) [%] | MTD [4] [mg/kg] | T/C % (mammary carcinoma MX-1 [5]) [%] | MTD ([6]; drug ip) [mg/kg] | MTD ([6]; drug iv) [mg/kg] | ILS % (P388 leukemia; drug ip) [%] | Log Kill (P388 leukemia; drug ip) | ILS % (P388 leukemia; drug iv) [%] | Log Kill (P388 leukemia; drug iv) | ILS % (B16 melanoma (B16)) [%] | Log Kill (B16 melanoma (B16)) | MTD ([7]; qd 1,5,9, exp SD-17) [mg/kg] | IC50 [1, 8] [µM] | MTD ([2]; qd 1,5,9, exp SD-18, MTD not achieved, maximum dose tested) [mg/kg] | MTD [7, 9] [mg/kg]
1 | Cc1cc(-c2c(F)cc3c4nn(CCN(C)C)c(=O)c-4cn(C4CC4)c3c2F)cc(C)n1.O=C(O)/C=C/C(=O)O [Example 1, 5-Cyclopropyl-6,8-difluoro-2,5-dihydro-2-[2-(dimethylamino)-ethyl]-7-(2,6-dimethyl-4-pyridinyl)-3H-pyrazolo[4,3-c]quinolin-3-one (E)-2-butendioate (1:1)] | 0.04 | 52 | 6 | 78 | 37 | 78 | 117 | 155 | 11 | 170 | 12 | 85 | 1.9 | 78 |  |  | 
2 | Cc1cc(-c2c(F)cc3c4nn(CCCN(C)C)c(=O)c-4cn(C4CC4)c3c2F)cc(C)n1 [Example 14] |  |  |  | 42 | 53 | 42 | 64 | 85 | 6.1 | 70 | 5.0 | 58 | 1.3 | 28 | 0.38 |  | 
3 | Cc1cc(-c2c(F)cc3c4nn(CCNCCO)c(=O)c-4cn(C4CC4)c3c2F)cc(C)n1 [Example 17] |  |  |  | 270 | 67 | 180 | 120 | 50 | 3.5 | 5 | 0.35 | 61 | 1.4 | 180 | 1.2 |  | 
4 | Cc1cc(-c2c(F)cc3c4nn([C@H]5CC[C@@H](N(C)C)CC5)c(=O)c-4cn(C4CC4)c3c2F)cc(C)n1 [Example 51a] |  |  | 5 |  |  | 9.9 | 39.9 | 65 | 4.7 | 70 | 5.1 | 29 | 0.67 |  |  | > 23 | > 15
5 | Cc1cc(-c2c(F)cc3c4nn([C@H]5CC[C@H](N(C)C)CC5)c(=O)c-4cn(C4CC4)c3c2F)cc(C)n1 [Example 51b] |  | 99 | 2 |  |  | 66 | 120 | 85 | 6.2 | 85 | 6.2 | 47 | 1.0 |  |  |  | > 99

Reference: patent publication US5334595A, “Pyrazoloquinolones as anticancer agents” (priority 1992, dated 1994)
